{"source": "patent US20250268884A1", "about": "“Deuterated Domperidone for Treating Gastroparesis” (CinDome Pharma, Inc., priority 2022, published 2025)", "key": {"healthy subjects": {"tested_on": "healthy subjects", "assay": "Thorough QT study, categorical outliers and T-wave morphology"}, "[1]": {"tested_on": "cardiac repolarization (QTcF) in healthy subjects", "assay": "Thorough QT study, by-time point analysis of ΔΔQTcF", "settings": "for ΔΔQTcF LS Mean: 400 mg moxifloxacin (Treatment C)"}, "[2]": {"tested_on": "cardiac conduction (QRS interval) in healthy subjects", "assay": "Thorough QT study, placebo-corrected change-from-baseline QRS (ΔΔQRS)", "settings": "400 mg moxifloxacin (Treatment C)"}, "[3]": {"assay": "Thorough QT study, plasma pharmacokinetics", "format": "in vivo, human", "settings": "400 mg single dose, healthy subjects", "source_text": "Blood samples for PK determination were drawn at the same time points immediately after the ECG extractions."}, "[4]": {"tested_on": "heart rate in healthy subjects", "assay": "Thorough QT study, placebo-corrected change-from-baseline HR (ΔΔHR)", "format": "in vivo, human", "settings": "400 mg moxifloxacin (Treatment C)"}, "[5]": {"tested_on": "cardiac conduction (PR interval) in healthy subjects", "assay": "Thorough QT study, placebo-corrected change-from-baseline PR (ΔΔPR)", "settings": "400 mg moxifloxacin (Treatment C)"}, "[6]": {"tested_on": "cardiac repolarization (QTcF) in healthy subjects", "settings": "human, in vivo", "source_text": "The same linear model was used for moxifloxacin.\nThe same linear model with a treatment effect-specific intercept as in the concentration-QTc analysis was used in the assay sensitivity analysis for moxifloxacin."}, "[7]": {"settings": "400 mg moxifloxacin (Treatment C), Total 51 subjects"}, "[8]": {"settings": "400 mg moxifloxacin (Treatment C), Total 762 time points"}, "[9]": {"settings": "Treatment C: 400 mg open-label moxifloxacin, of 51 subjects"}, "[10]": {"settings": "Treatment C: 400 mg open-label moxifloxacin, of 762 time points"}}}
{"smiles": "COc1c(N2C[C@@H]3CCCN[C@@H]3C2)c(F)cc2c(=O)c(C(=O)O)cn(C3CC3)c12", "note": "[moxifloxacin]", "values": [{"measurement": "Subjects with QTcF >450 and <=480 ms, number", "setting": "healthy subjects; [7]", "result": 6}, {"measurement": "Subjects with QTcF >450 and <=480 ms, percent", "setting": "healthy subjects; [7]", "result": "(11.8%)"}, {"measurement": "Subjects with QTcF >480 and <=500 ms, number", "setting": "healthy subjects; [7]", "result": 0}, {"measurement": "Subjects with QTcF >500 ms, number", "setting": "healthy subjects; [7]", "result": 0}, {"measurement": "Time points with QTcF >450 and <=480 ms, number", "setting": "healthy subjects; [8]", "result": 19}, {"measurement": "Time points with QTcF >450 and <=480 ms, percent", "setting": "healthy subjects; [8]", "result": "(2.5%)"}, {"measurement": "Time points with QTcF >480 and <=500 ms, number", "setting": "healthy subjects; [8]", "result": 0}, {"measurement": "Time points with QTcF >500 ms, number", "setting": "healthy subjects; [8]", "result": 0}, {"measurement": "subjects with QTcF >450 and <480 ms", "setting": "healthy subjects; 400 mg moxifloxacin, at 19 time points", "result": "6 subject(s)"}, {"measurement": "QTcF outliers per change-from-baseline category: QTcF >30 and <=60 ms, subjects", "setting": "healthy subjects; [9]", "result": 0}, {"measurement": "QTcF outliers per change-from-baseline category: QTcF >60 ms, subjects", "setting": "healthy subjects; [9]", "result": 0}, {"measurement": "QTcF outliers per change-from-baseline category: QTcF >30 and <=60 ms, time points", "setting": "healthy subjects; [10]", "result": 0}, {"measurement": "QTcF outliers per change-from-baseline category: QTcF >60 ms, time points", "setting": "healthy subjects; [10]", "result": 0}, {"measurement": "subjects with treatment-emergent inverted T waves", "setting": "healthy subjects; moxifloxacin treatment period, at 1 time point", "result": 1, "unit": "subject"}, {"measurement": "peak LS mean ΔΔQTcF", "setting": "[1]; 400 mg oral moxifloxacin, 3 hours post-dose", "result": 13.3, "unit": "ms"}, {"measurement": "ΔΔQTcF LS Mean", "setting": "[1]; 0.5 H Post Dose", "result": 5.8, "unit": "ms"}, {"measurement": "ΔΔQTcF LS Mean", "setting": "[1]; 1 H Post Dose", "result": 12.2, "unit": "ms"}, {"measurement": "ΔΔQTcF LS Mean", "setting": "[1]; 1.5 H Post Dose", "result": 10.9, "unit": "ms"}, {"measurement": "ΔΔQTcF LS Mean", "setting": "[1]; 2 H Post Dose", "result": 11.3, "unit": "ms"}, {"measurement": "ΔΔQTcF LS Mean", "setting": "[1]; 2.5 H Post Dose", "result": 11.7, "unit": "ms"}, {"measurement": "ΔΔQTcF LS Mean", "setting": "[1]; 3 H Post Dose", "result": 13.3, "unit": "ms"}, {"measurement": "ΔΔQTcF LS Mean", "setting": "[1]; 4 H Post Dose", "result": 12.1, "unit": "ms"}, {"measurement": "ΔΔQTcF LS Mean", "setting": "[1]; 5 H Post Dose", "result": 10.3, "unit": "ms"}, {"measurement": "ΔΔQTcF LS Mean", "setting": "[1]; 6 H Post Dose", "result": 7.5, "unit": "ms"}, {"measurement": "ΔΔQTcF LS Mean", "setting": "[1]; 8 H Post Dose", "result": 8.9, "unit": "ms"}, {"measurement": "ΔΔQTcF LS Mean", "setting": "[1]; 12 H Post Dose", "result": 8.2, "unit": "ms"}, {"measurement": "ΔΔQTcF LS Mean", "setting": "[1]; 24 H Post Dose", "result": 4.0, "unit": "ms"}, {"measurement": "ΔΔQTcF LS Mean", "setting": "[1]; 36 H Post Dose", "result": 3.0, "unit": "ms"}, {"measurement": "ΔΔQTcF LS Mean", "setting": "[1]; 48 H Post Dose", "result": 2.6, "unit": "ms"}, {"measurement": "ΔΔQRS LS Mean", "setting": "[2]; 0.5 H Post Dose", "result": 0.1, "unit": "ms"}, {"measurement": "ΔΔQRS LS Mean", "setting": "[2]; 1 H Post Dose", "result": 0.5, "unit": "ms"}, {"measurement": "ΔΔQRS LS Mean", "setting": "[2]; 1.5 H Post Dose", "result": 0.3, "unit": "ms"}, {"measurement": "ΔΔQRS LS Mean", "setting": "[2]; 2 H Post Dose", "result": 0.4, "unit": "ms"}, {"measurement": "ΔΔQRS LS Mean", "setting": "[2]; 2.5 H Post Dose", "result": 0.4, "unit": "ms"}, {"measurement": "ΔΔQRS LS Mean", "setting": "[2]; 3 H Post Dose", "result": 0.6, "unit": "ms"}, {"measurement": "ΔΔQRS LS Mean", "setting": "[2]; 4 H Post Dose", "result": 0.1, "unit": "ms"}, {"measurement": "ΔΔQRS LS Mean", "setting": "[2]; 5 H Post Dose", "result": 0.7, "unit": "ms"}, {"measurement": "ΔΔQRS LS Mean", "setting": "[2]; 6 H Post Dose", "result": -0.1, "unit": "ms"}, {"measurement": "ΔΔQRS LS Mean", "setting": "[2]; 8 H Post Dose", "result": 0.5, "unit": "ms"}, {"measurement": "ΔΔQRS LS Mean", "setting": "[2]; 12 H Post Dose", "result": 0.1, "unit": "ms"}, {"measurement": "ΔΔQRS LS Mean", "setting": "[2]; 24 H Post Dose", "result": 0.0, "unit": "ms"}, {"measurement": "ΔΔQRS LS Mean", "setting": "[2]; 36 H Post Dose", "result": 0.5, "unit": "ms"}, {"measurement": "ΔΔQRS LS Mean", "setting": "[2]; 48 H Post Dose", "result": 0.6, "unit": "ms"}, {"measurement": "geometric mean peak moxifloxacin concentration", "setting": "[3]", "result": 1552.6, "unit": "ng/mL"}, {"measurement": "ΔΔHR LS Mean", "setting": "[4]; 0.5 H Post Dose", "result": 1.9, "unit": "bpm"}, {"measurement": "ΔΔHR LS Mean", "setting": "[4]; 1 H Post Dose", "result": 2.2, "unit": "bpm"}, {"measurement": "ΔΔHR LS Mean", "setting": "[4]; 1.5 H Post Dose", "result": 1.0, "unit": "bpm"}, {"measurement": "ΔΔHR LS Mean", "setting": "[4]; 2 H Post Dose", "result": 1.3, "unit": "bpm"}, {"measurement": "ΔΔHR LS Mean", "setting": "[4]; 2.5 H Post Dose", "result": "−0.3", "unit": "bpm"}, {"measurement": "ΔΔHR LS Mean", "setting": "[4]; 3 H Post Dose", "result": "−0.0", "unit": "bpm"}, {"measurement": "ΔΔHR LS Mean", "setting": "[4]; 4 H Post Dose", "result": 0.7, "unit": "bpm"}, {"measurement": "ΔΔHR LS Mean", "setting": "[4]; 5 H Post Dose", "result": "−0.0", "unit": "bpm"}, {"measurement": "ΔΔHR LS Mean", "setting": "[4]; 6 H Post Dose", "result": "−1.3", "unit": "bpm"}, {"measurement": "ΔΔHR LS Mean", "setting": "[4]; 8 H Post Dose", "result": 0.7, "unit": "bpm"}, {"measurement": "ΔΔHR LS Mean", "setting": "[4]; 12 H Post Dose", "result": "−1.9", "unit": "bpm"}, {"measurement": "ΔΔHR LS Mean", "setting": "[4]; 24 H Post Dose", "result": "−0.1", "unit": "bpm"}, {"measurement": "ΔΔHR LS Mean", "setting": "[4]; 36 H Post Dose", "result": "−0.3", "unit": "bpm"}, {"measurement": "ΔΔHR LS Mean", "setting": "[4]; 48 H Post Dose", "result": 0.8, "unit": "bpm"}, {"measurement": "ΔΔPR LS Mean", "setting": "[5]; 0.5 H Post Dose", "result": -3.4, "unit": "ms"}, {"measurement": "ΔΔPR LS Mean", "setting": "[5]; 1 H Post Dose", "result": -2.9, "unit": "ms"}, {"measurement": "ΔΔPR LS Mean", "setting": "[5]; 1.5 H Post Dose", "result": -3.6, "unit": "ms"}, {"measurement": "ΔΔPR LS Mean", "setting": "[5]; 2 H Post Dose", "result": -2.5, "unit": "ms"}, {"measurement": "ΔΔPR LS Mean", "setting": "[5]; 2.5 H Post Dose", "result": -1.3, "unit": "ms"}, {"measurement": "ΔΔPR LS Mean", "setting": "[5]; 3 H Post Dose", "result": -2.7, "unit": "ms"}, {"measurement": "ΔΔPR LS Mean", "setting": "[5]; 4 H Post Dose", "result": -2.0, "unit": "ms"}, {"measurement": "ΔΔPR LS Mean", "setting": "[5]; 5 H Post Dose", "result": -2.0, "unit": "ms"}, {"measurement": "ΔΔPR LS Mean", "setting": "[5]; 6 H Post Dose", "result": -3.0, "unit": "ms"}, {"measurement": "ΔΔPR LS Mean", "setting": "[5]; 8 H Post Dose", "result": -0.9, "unit": "ms"}, {"measurement": "ΔΔPR LS Mean", "setting": "[5]; 12 H Post Dose", "result": -0.0, "unit": "ms"}, {"measurement": "ΔΔPR LS Mean", "setting": "[5]; 24 H Post Dose", "result": -2.5, "unit": "ms"}, {"measurement": "ΔΔPR LS Mean", "setting": "[5]; 36 H Post Dose", "result": 0.9, "unit": "ms"}, {"measurement": "ΔΔPR LS Mean", "setting": "[5]; 48 H Post Dose", "result": -0.3, "unit": "ms"}, {"measurement": "lower bound of the 2-sided CI of the predicted QT effect", "setting": "[6]", "result": "above 5 ms"}]}
